Key:
NHE3 [1] = molecular target: T1, NHE3 (Homo sapiens, UniProt P48764); assay: Cell-based assay of NHE-3 activity (pre-incubation inhibition), human; details: human Preincubation; for IC50 / pIC50: 0-30 μM test compound
T1 construct: expressed in transfected cells
T1 sequence (P48764 26-834): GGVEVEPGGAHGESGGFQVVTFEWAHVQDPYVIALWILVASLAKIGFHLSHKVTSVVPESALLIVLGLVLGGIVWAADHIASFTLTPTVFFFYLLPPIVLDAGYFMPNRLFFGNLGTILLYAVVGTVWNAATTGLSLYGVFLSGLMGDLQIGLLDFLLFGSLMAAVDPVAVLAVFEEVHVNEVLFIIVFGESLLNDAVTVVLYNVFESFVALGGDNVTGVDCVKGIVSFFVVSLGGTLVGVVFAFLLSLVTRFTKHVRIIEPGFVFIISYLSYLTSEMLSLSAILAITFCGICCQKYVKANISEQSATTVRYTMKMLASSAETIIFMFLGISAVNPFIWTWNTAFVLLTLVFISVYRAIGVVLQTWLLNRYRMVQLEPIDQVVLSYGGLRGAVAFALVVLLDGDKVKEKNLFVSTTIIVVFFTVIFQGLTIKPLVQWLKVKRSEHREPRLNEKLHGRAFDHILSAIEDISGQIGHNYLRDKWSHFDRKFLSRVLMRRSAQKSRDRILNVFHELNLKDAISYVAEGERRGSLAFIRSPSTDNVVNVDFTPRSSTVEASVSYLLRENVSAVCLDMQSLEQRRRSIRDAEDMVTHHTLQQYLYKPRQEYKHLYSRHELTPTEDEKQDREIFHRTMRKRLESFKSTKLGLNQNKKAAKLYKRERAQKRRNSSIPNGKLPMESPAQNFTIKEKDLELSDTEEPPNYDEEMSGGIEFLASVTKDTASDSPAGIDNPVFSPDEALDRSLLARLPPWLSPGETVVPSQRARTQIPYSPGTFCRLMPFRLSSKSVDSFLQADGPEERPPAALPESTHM
T1 sequence (Q99653 2-195 partner limits assumed): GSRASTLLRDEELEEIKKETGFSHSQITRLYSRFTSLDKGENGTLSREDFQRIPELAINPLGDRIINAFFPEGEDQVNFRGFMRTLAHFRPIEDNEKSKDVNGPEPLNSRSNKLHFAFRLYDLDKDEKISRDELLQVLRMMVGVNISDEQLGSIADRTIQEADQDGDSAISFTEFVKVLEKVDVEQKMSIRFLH
Procedure, shortened: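 PS120 fibroblasts stably expressing human NHE3 and NHERF2, loaded 30 min at 37 °C with 5 μM BCECF-AM in NH4Cl buffer, then acidified 10 min at room temperature in Na+-free buffer with 0–30 μM compound. Initial rate of BCECF fluorescence ratio change (FLIPR) per minute taken as Na+/H+ activity.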

NHE3 [2] = molecular target: T1, NHE3; assay: Cell-based assay of NHE-3 activity (persistent inhibition), human; details: human Persistence, 60 min incubation then washout
Procedure, shortened: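 PS120 fibroblasts expressing human NHE3 with NHERF2 exposed to 0-30 μM compound for 60 min at RT, then washed out; cells acid-loaded by NH4Cl prepulse with BCECF-AM and Na+-free buffer. Na+-driven pH recovery started 10 min post-washout; initial rate of BCECF ratio change (FLIPR) taken as activity.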

| % inhibition (NHE3 [1]) | IC50 (NHE3 [1]) [nM] | % inhibition (NHE3 [2]) | IC50 (NHE3 [2]) [nM] | pIC50 (NHE3 [1]) | pIC50 (NHE3 [2]) | Compound |
| --- | --- | --- | --- | --- | --- | --- |
| C (>70%) | < 100 | C (>70%) | < 100 |  |  | N[C@@H]1CCCN([C@H]2Cc3c(Cl)cc(Cl)cc3[C@@H]2Oc2ccc(S(=O)(=O)NCCOCCOCCn3cc(CNC(=O)NCCCCNC(=O)NCc4cn(CCOCCOCCNS(=O)(=O)c5ccc(O[C@H]6c7cc(Cl)cc(Cl)c7C[C@@H]6N6CCC[C@@H](N)C6)cc5)nn4)nn3)cc2)C1 [Example 56, 1-([1-[2-(2-[2-[(4-[[(1S,2S)-2-[(3R)-3-Aminopiperidin-1-yl]-4,6-dichloro-2,3-dihydro-1H-inden-1-yl]oxy]benzene)sulfonamido]ethoxy]ethoxy)ethyl]-1H-1,2,3-triazol-4-yl]methyl)-3-(4-[[([1-[2-(2-[2-[(4-[[(1S,2S)-2-[(3R)-3-aminopiperidin-1-yl]-4,6-dichloro-2,3-dihydro-1H-inden-1-yl]oxy]benzene)sulfonamido]ethoxy]ethoxy)ethyl]-1H-1,2,3-triazol-4-yl]methyl)carbamoyl]amino]butyl)urea] |
| C (>70%) | < 100 | C (>70%) | < 100 |  |  | N[C@@H]1CCCN([C@H]2Cc3c(Cl)cc(Cl)cc3[C@@H]2Oc2ccc(S(=O)(=O)NCCCCn3cc(CNC(=O)NCCCCNC(=O)NCc4cn(CCCCNS(=O)(=O)c5ccc(O[C@H]6c7cc(Cl)cc(Cl)c7C[C@@H]6N6CCC[C@@H](N)C6)cc5)nn4)nn3)cc2)C1 [Example 58, 3-[(1-[4-[(4-[[(1S,2S)-2-[(3R)-3-Aminopiperidin-1-yl]-4,6-dichloro-2,3-dihydro-1H-inden-1-yl]oxy]benzene)sulfonamido]butyl]-1H-1,2,3-triazol-4-yl)methyl]-1-[4-([[(1-[4-[(4-[[(1S,2S)-2-[(3R)-3-aminopiperidin-1-yl]-4,6-dichloro-2,3-dihydro-1H-inden-1-yl]oxy]benzene)sulfonamido]butyl]-1H-1,2,3-triazol-4-yl)methyl]carbamoyl]amino)butyl]urea] |
| C (>70%) |  | C (>70%) |  |  |  | N[C@@H]1CCCN([C@H]2Cc3c(Cl)cc(Cl)cc3[C@@H]2Oc2ccc(S(=O)(=O)NCCCCCCn3cc(CNC(=O)NCCCCNC(=O)NCc4cn(CCCCCCNS(=O)(=O)c5ccc(O[C@H]6c7cc(Cl)cc(Cl)c7C[C@@H]6N6CCC[C@@H](N)C6)cc5)nn4)nn3)cc2)C1 [Example 59, 3-[(1-[6-[(4-[[(1S,2S)-2-[(3R)-3-Aminopiperidin-1-yl]-4,6-dichloro-2,3-dihydro-1H-inden-1-yl]oxy]benzene)sulfonamido]-hexyl]-1H-1,2,3-triazol-4-yl)methyl]-1-[4-([[(1-[6-[(4-[[(1S,2S)-2-[(3R)-3-aminopiperidin-1-yl]-4,6-dichloro-2,3-dihydro-1H-inden-1-yl]oxy]benzene)sulfonamido]hexyl]-1H-1,2,3-triazol-4-yl)methyl]carbamoyl]amino)butyl]urea] |

The remaining lines, values behind:

| Compound | % inhibition (NHE3 [1]) | IC50 (NHE3 [1]) [nM] | % inhibition (NHE3 [2]) | IC50 (NHE3 [2]) [nM] | pIC50 (NHE3 [1]) | pIC50 (NHE3 [2]) |
| --- | --- | --- | --- | --- | --- | --- |
| NC1CCCN(C2Cc3c(Cl)cc(Cl)cc3C2Oc2ccc(S(=O)(=O)NCCOCCOCCn3cc(CNC(=O)C(O)C(O)C(O)C(O)C(=O)NCc4cn(CCOCCOCCNS(=O)(=O)c5ccc(OC6c7cc(Cl)cc(Cl)c7CC6N6CCCC(N)C6)cc5)nn4)nn3)cc2)C1 [Example 57, (2R,3S,4R,5S)—N^1,N^6-Bis([1-[2-(2-[2-[(4-[[(1S,2S)-2-[(3R)-3-aminopiperidin-1-yl]-4,6-dichloro-2,3-dihydro-1H-inden-1-yl]oxy]benzene)sulfonamido]ethoxy]ethoxy)ethyl]-1H-1,2,3-triazol-4-yl]methyl)-2,3,4,5-tetrahydroxyhexanediamide] |  |  |  |  | C (NHE3 pIC50 > 7) | C (NHE3 pIC50 > 7) |
| CC1(C)O[C@H]2[C@@H](OC(C)(C)O[C@H]2C(=O)NCc2cn(CCCCNS(=O)(=O)c3ccc(O[C@H]4c5cc(Cl)cc(Cl)c5C[C@@H]4N4CCC[C@@H](N)C4)cc3)nn2)[C@@H](C(=O)NCc2cn(CCCCNS(=O)(=O)c3ccc(O[C@H]4c5cc(Cl)cc(Cl)c5C[C@@H]4N4CCC[C@@H](N)C4)cc3)nn2)O1 [Example 60, (4R,4aS,8S,8aR)—N^4,N^8-Bis([1-(4-[4-((1S,2S)-2-[(3R)-3-aminopiperidin-1-yl]-4,6-dichloro-2,3-dihydro-1H-inden-1-yloxy)phenylsulfonamide]butyl)-1H-1,2,3-traizol-4-yl]methyl)-2,2,6,6-tetramethyl-tetrahydro-[1,3]dioxino[5,4-d][1,3]dioxine-4,8-dicarboxamide] | C (>70%) |  | C (>70%) |  | C (NHE3 pIC50 > 7) | C (NHE3 pIC50 > 7) |
| N[C@@H]1CCCN([C@H]2Cc3c(Cl)cc(Cl)cc3[C@@H]2Oc2ccc(S(=O)(=O)NCCCCCCCCNC(=O)NCCCCNC(=O)NCCCCCCCCNS(=O)(=O)c3ccc(O[C@H]4c5cc(Cl)cc(Cl)c5C[C@@H]4N4CCC[C@@H](N)C4)cc3)cc2)C1 [Example 62, 3-[8-[(4-[[(1S,2S)-2-[(3R)-3-Aminopiperidin-1-yl]-4,6-dichloro-2,3-dihydro-1H-inden-1-yl]oxy]benzene)sulfonamido]octyl]-1-[4-[([8-[(4-[[(1S,2S)-2-[(3R)-3-aminopiperidin-1-yl]-4,6-dichloro-2,3-dihydro-1H-inden-1-yl]oxy]benzene)sulfonamido]octyl]carbamoyl)amino]butyl]urea; bis(trifluoroacetic acid)] | C (>70%) | < 100 | A (NHE3 < 40%) | > 1000 |  |  |
| Cc1cc(S(=O)(=O)NCCCCCCCCNC(=O)NCCCCNC(=O)NCCCCCCCCNS(=O)(=O)c2ccc(O[C@H]3c4cc(Cl)cc(Cl)c4C[C@@H]3N3CCC[C@@H](N)C3)c(C)c2)ccc1O[C@H]1c2cc(Cl)cc(Cl)c2C[C@@H]1N1CCC[C@@H](N)C1 [Example 63, 3-[8-[(4-[[(1S,2S)-2-[(3R)-3-Aminopiperidin-1-yl]-4,6-dichloro-2,3-dihydro-1H-inden-1-yl]oxy]-3-methylbenzene)sulfonamido]octyl]-1-[4-[([8-[(4-[[(1S,2S)-2-[(3R)-3-aminopiperidin-1-yl]-4,6-dichloro-2,3-dihydro-1H-inden-1-yl]oxy]-3-methylbenzene)sulfonamide]octyl]carbamoyl)amino]butyl]urea] | B (40-70%) |  | B (40-70%) | 100 to 1000 | C (NHE3 pIC50 > 7) |  |
| CN(C)[C@H]1Cc2c(Cl)cc(Cl)cc2[C@@H]1Oc1ccc(S(=O)(=O)NCCCCCCCCNC(=O)NCCCCNC(=O)NCCCCCCCCNS(=O)(=O)c2ccc(O[C@H]3c4cc(Cl)cc(Cl)c4C[C@@H]3N(C)C)cc2)cc1 [Example 64, 3-[8-[(4-[[(1S,2S)-4,6-Dichloro-2-(diamethylamino)-2,3-dihydro-1H-inden-1-yl]oxy]benzene)sulfonamido]octyl]-1-[4-[([8-[(4-[[(1S,2S)-4,6-dichloro-2-(diamethylamino)-2,3-dihydro-1H-inden-1-yl]oxy]benzene)sulfonamido]octyl]carbamoyl)amino]butyl]urea; bis(trifluoroacetic acid)] | A (NHE3 < 40%) |  | A (NHE3 < 40%) |  |  |  |
| Cc1cc(S(=O)(=O)NCCCCCCCCNC(=O)NCCCCNC(=O)NCCCCCCCCNS(=O)(=O)c2ccc(O[C@H]3c4cc(Cl)cc(Cl)c4C[C@@H]3N(C)C)c(C)c2)ccc1O[C@H]1c2cc(Cl)cc(Cl)c2C[C@@H]1N(C)C [Example 65, 3-[8-[(4-[[(1S,2S)-4,6-Dichloro-2-(dimethylamino)-2,3-dihydro-1H-inden-1-yl]oxy]-3-methylbenzene)sulfonamido]octyl]-1-[4-[([8-[(4-[[(1S,2S)-4,6-dichloro-2-(dimethylamino)-2,3-dihydro-1H-inden-1-yl]oxy]-3-methylbenzene)sulfonamido]octyl]carbamoyl)amino]butyl]urea] | A (NHE3 < 40%) |  | A (NHE3 < 40%) |  |  |  |

From patent US11242337B2, “Compounds useful for treating gastrointestinal tract disorders” (Ardelyx, Inc., priority 2017, dated 2022)
